According to patent US20190134060A1, “25-HYDROXYCHOLESTEROL AND METHODS OF USE THEREOF” (priority 2016, published 2019):
“Also recorded” adds a separate entry of the source.

Key:
[1] = test system: rat hippocampal cultures; experiment: Oxygen-glucose deprivation (OGD, 2.5 hours)-induced cell death, PI/Hoechst survival; assay type: cell-based; details: for OGD-induced cell death exacerbated by 24S-HC, effect of NMDAR antagonist: co-treatment prior to and during OGD
Method: (§1) Cell culture. All animal care and experimental procedures were consistent with National Institutes of Health guidelines and were approved by the Washington University Animal Studies Committee. Studies involving animals are reported in accordance with the ARRIVE guidelines for reporting experiments involving animals (12, 13). Rat or mouse hippocampal cultures were prepared from postnatal day 1 to 3, pups of both sexes (85% female) anaesthetized with isoflurane. Hippocampal slices (500 μm thickness) were digested with 1 mg⋅mL^−1 papain in oxygenated LeibovitzL-15 medium (Life Technologies, Gaithersburg, Md., USA). Tissue was mechanically triturated in modified Eagle's medium (Life Technologies) containing 5% horse serum, 5% FCS, 17 mM D glucose, 400 μM glutamine, 50 U⋅mL^−1 penicillin and 50 μg⋅mL^−1 streptomycin. Cells were seeded in modified Eagle's medium at a density of ˜650 cells per mm^2 (onto 25 mm cover glasses coated with 5 mg⋅mL^−1 collagen or 0.1 mg⋅mL^−1 poly-D-lysine with 1 mg⋅mL^−1 laminin). Cultures were incubated at 37° C. in a humidified chamber with 5% CO2/95% air. Cytosine arabinoside (6.7 μM) was added 3-4 days after plating to inhibit glial proliferation. The following day, half of the culture medium was replaced with Neurobasal medium (Life Technologies) plus B27 supplement (Life Technologies).
(§2) Oxygen-glucose deprivation. Mass cultures (13-14 DIV) were exposed to oxygen-glucose deprivation (OGD), in which original medium containing 25 mM glucose was exchanged for fresh MEM medium […] and exposed to a sealed chamber (Billups-Rothenberg, Del Mar, Calif., USA), humidified and saturated with 95% nitrogen and 5% CO2 at 37° C., for 2.5 hours. The gas exchange followed the specifications of the chamber manufacturer (flow of 20 L⋅minute^−1 for 4 minutes to achieve 100% gas exchange). In some experiments, original medium was exchanged for fresh MEM medium containing the specified drugs immediately prior to OGD exposure. Controls were incubated in MEM medium without oxygen deprivation. Following OGD or control treatment, cells were returned to their original medium and incubated under standard culture conditions until the cell death assay (24 hours later). Hoechst 33342 (5 μM) was used to identify all nuclei and propidium iodide (PI, 3 μM) for 30 minutes to stain nuclei of cells with compromised membranes.
(§3) Data analysis. Five 10× microscope fields were quantified per condition per experiment, yielding>100 total neurons for each condition. Ratios of healthy neurons were quantified as the fraction of PI-negative neuronal nuclei to total neuronal nuclei. Automated cell counting algorithms (ImageJ software, National Institutes of Health, Bethesda, Md., USA) were used for cell counts. Toxicity experiments were treated as a dependent sample design (32) in which sibling cultures plated in identical media and exposed to OGD at the same time were compared by repeated measures statistics. Results are shown as means±SEM. Comparative statistics were performed with Student's t-test or one-way repeated measures ANOVA where indicated.

[2] = test system: NMDARs; details: cited from earlier work
[3] = test system: NMDARs; experiment: Modulation of NMDAR function
[4] = test system: hippocampal cultures; experiment: NMDA-induced cell death (NMDA toxicity) in hippocampal cultures; assay type: cell-based
Method: If the neuroprotective effects of 25-HC are entirely through antagonism of NMDAR function and endogenous, local 24S-HC, it would be expected that 25-HC should also reduce direct NMDA-induced cell death. NMDA was exogenously applied at either 8 μM or 20 μM to induce mild or severe toxicity (FIG. 5A).
as §1, §3

[5] = test system: hippocampal neuron cultures from C571Bl/6 mice; experiment: NMDAR-independent neuroprotection in WT and CYP46A1 knockout mouse hippocampal neuron cultures; assay type: cell-based
Method: (§4) FIG. 6A, FIG. 6B, FIG. 6C, FIG. 6D, and FIG. 6E depict graphs showing that 25-HC has an NMDAR-independent protecting effect on OGD-induced cell death. (FIG. 6A) Survival rate was compared between control, OGD (3 hour), OGD (3 hour)+MK-801, and OGD (3 hour) +MK-801+25-HC. […] 25-HC protected against the MK-801 insensitive OGD-induced cell death. (n=12 cultures for each group, one-way repeated measures ANOVA with Bonferroni's post hoc test, *p<0.05, ***p<0.001). […] (FIG. 6C) H2O2 (100 μM, 1 hour treatment) toxicity was used to test neuroprotection of 25-HC. 25-HC again yielded mild but reliable protection (N=10 cultures for each group, one-way repeated measures ANOVA with Bonferroni's post hoc test, *P<0.05). (FIG. 6D) and (FIG. 6E) Neither WT nor CYP46A1 knockout hippocampal neuron cultures from C571Bl/6 mice was sensitive to the mild NMDAR independent neuroprotective effect of 25-HC (N=7 cultures for each group; P>0.05).
(§5) To further test the NMDAR-independence neuroprotective effect, a model of oxidative damage: H2O2 induced toxicity was used.
Cell culture. All animal care and experimental procedures were consistent with National Institutes of Health guidelines and were approved by the Washington University Animal Studies Committee. Studies involving animals are reported in accordance with the ARRIVE guidelines for reporting experiments involving animals (12, 13). […]

[6] = test system: hippocampal cultures; experiment: More severe OGD (3 hours) with NMDAR blockade by MK-801, cell death; assay type: cell-based; details: for normalized survival: n=9 cultures
Method: As a final test, a more severe OGD insult was applied by increasing OGD exposure time from 2.5 hours to 3 hours to help emphasize any NMDAR-independent mechanisms of OGD-induced death.
as §2, §3

[7] = test system: hippocampal cultures; experiment: H2O2 induced toxicity (model of oxidative damage); assay type: cell-based; details: H2O2 100 μM, 1 hour treatment; in the presence of MK-801
Method: as §4, §5

## N[C@@H](CCCP(=O)(O)O)C(=O)O [APV]
[1]; APV
  OGD-induced cell death in AAV-CYP-GFP and AAV-GFP-infected neuron cultures: prevented OGD-induced cell death
[1]; administered before and during OGD
  neuroprotection against OGD: highly neuroprotective
[1]; administered during the latent period following OGD insult
  neuroprotection against OGD: much less effective
[1]
  OGD-induced cell death exacerbated by 24S-HC, effect of NMDAR antagonist: rescued

## CC(C)[C@@H](O)CC[C@@H](C)[C@H]1CC[C@H]2[C@@H]3CC=C4C[C@@H](O)CC[C@]4(C)[C@H]3CC[C@]12C [24S-HC, 24S-hydroxycholesterol]
[2]
  concentration at which effects on NMDAR function saturate: ~10 µM
[3]
  exogenous concentration needed to potentiate NMDAR function: ~50 nM
[4]; 8 μM NMDA
  NMDA toxicity with 24S-HC co-treatment: exacerbated NMDA toxicity
[1]; 24S-HC 0.5 μM
  survival compared to OGD alone: significantly poorer survival
[1]; 24S-HC 2 μM, exogenous application, WT rat hippocampal cultures 14 days in vitro
  OGD-induced cell death / survival rate: significantly poorer survival; also recorded: enhanced OGD-induced cell death; also recorded: significantly lower survival rate
[1]; 24S-HC alone
  effect on survival when administered alone (no OGD): Consistent effects of 24S-HC were not observed
[1]; 24S-HC over a range of 50 nM to 2 μM, rat cultures
  concentration dependence of OGD-induced cell death: depended on 24S-HC concentration

## CN[C@H](CC(=O)O)C(=O)O [NMDA]
[4]; NMDA at 8 μM and 20 μM
  cell survival: significantly reduced cell survival

## C[C@H](CCCC(C)(C)O)[C@H]1CC[C@H]2[C@@H]3CC=C4C[C@@H](O)CC[C@]4(C)[C@H]3CC[C@]12C [25-HC, 5-cholestene-3β,25-diol]
[5]; CYP46A1 knockout mouse cultures
  NMDAR-independent neuroprotective effect: did not extend
[5]; WT mouse cultures
  NMDAR-independent neuroprotective effect: did not extend
[2]
  antagonism of 24S-HC effects on NMDARs: non-competitively antagonizes
[6]; 10 μM 25-HC in the presence of 20 μM MK-801, OGD 3 hours
  neuroprotection against MK-801 insensitive OGD-induced cell death: mild but significant neuroprotection
[4]; 10 μM 25-HC, 8 μM NMDA + 24S-HC
  24S-HC exacerbation of NMDA toxicity: significantly alleviated
[4]; 10 μM 25-HC, NMDA 8 μM or 20 μM
  neuroprotection against NMDA-induced cell death: no neuroprotection
[7]
  neuroprotection against H2O2 induced toxicity: mild but consistent neuroprotective effect
[1]; 10 μM 25-HC incubation during the OGD insult
  OGD-induced cell death without exogenous 24S-HC: alleviated
[1]; 10 μM 25-HC with 1 μM SGE-201
  SGE-201-exacerbated OGD injury: alleviated
[1]; 25-HC before or after OGD insult
  survival rates, treatment before versus after OGD insult: comparable survival rates
[1]; co-treatment 10 μM 25-HC and 2 μM 24S-HC
  OGD-induced cell death relative to 24S-HC and OGD alone: significantly alleviated OGD-induced cell death

## C[C@]12N[C@H](Cc3ccccc31)c1ccccc12 [MK-801]
[6]; 20 μM MK-801
  cell death after OGD 3 hours: partially rescued
[6]; OGD 3 hours + 20 μM MK-801
  normalized survival: 0.66±0.03
[1]
  OGD-induced cell death exacerbated by 24S-HC, effect of NMDAR antagonist: prevented

## C[C@H](CCC(C)(C)O)[C@H]1CC[C@H]2[C@@H]3CC=C4C[C@@H](O)CC[C@]4(C)[C@H]3CC[C@]12C [SGE-201]
[6]; 1 μM SGE-201 in the presence of 20 μM MK-801
  exacerbation of OGD toxicity: failed to exacerbate OGD toxicity
[6]; OGD 3 hours + 20 μM MK-801 + 1 μM SGE-201
  normalized survival: 0.64±0.04
[1]; 1 μM SGE-201
  OGD injury: exacerbated OGD injury
